# Measurements: patent US10844049B2, “GLP-1R agonists and uses thereof” (QILU REGOR THERAPEUTICS INC., priority 2018, dated 2020)
# Biological target: GLP1R (Homo sapiens, UniProt P43220)
# Experiment: GLP1R cAMP HTRF assay, HEK293/GLP-1R/CRE/Luc (HEK293T cells)
# Type: cell-based
# Conditions: read-out: EC50
# Protocol: GLP-1R-mediated agonist activity was determined with a cell-based functional assay utilizing an HTRF (Homogeneous Time-Resolved Fluorescence) cAMP detection kit (cAMP Dynamic 2 Assay Kit; CisBio cat #62AM4PEC) that measures cAMP levels in the cell. The method is a competitive immunoassay between native cAMP produced by the cells and exogenous cAMP labeled with the dye d2. The tracer binding is visualized by a mAb anti-cAMP labeled with Cryptate. The specific signal (i.e., energy transfer) is inversely proportional to the concentration of cAMP in either standard or experimental sample.
# A cell line stably expressing the receptor was isolated.
# Varying concentrations of each compound to be tested (in DMSO) were diluted in DMSO to obtain 200× compound working solution first and then 50 nl compounds were added to a white 384-well assay plate (Greiner 784075) with ECHO. The final DMSO concentration was 0.5%. The compound concentration range may be adjusted at any time.
# Cells were removed from cryopreservation, re-suspended in 5 mL of Dulbecco's Phosphate Buffered Saline (DPBS-Sigma Cat # D8537) and centrifuged at 900 g for 5 min at 22° C. The cell pellet was then re-suspended in 1 mL of assay buffer [DPBS with 500 μM IBMX (Sigma #15879) and 0.1% BSA (Sigma # A1933). IBMX and BSA were freshly added on the day of assay]. A 10 μL sample of the cell suspension was counted on an Invitrogen Countess II to determine cell viability and cell count per mL. The remaining cell suspension was then adjusted with assay buffer to deliver 1000 viable cells per well using a Matrix Combi Multidrop reagent dispenser. 10 μL cell suspensions were added to each well of the assay plate which already contains compound. The plate was sealed and incubated at 37° C. with 5% CO2 for 30 minutes.
# Following the 30 minute incubation, 5 μL of labeled d2 cAMP and 5 μL of anti-cAMP antibody (both diluted 1:20 in cell lysis buffer; as described in the manufacturer's assay protocol) were added to each well of the assay plate. The plates w ere then incubated at room temperature and after 60 minutes, changes in the HTRF signal were read with an Envision multi-label plate reader using excitation of 330 nm and emissions of 615 and 665 nm. Raw data were converted to nM cAMP by interpolation from a cAMP standard curve (as described in the manufacturer's assay protocol) and the percent effect was determined relative to a saturating concentration of the full agonist GLP-17-37 (10 nM) included on each plate. EC50 determinations were made from agonist dose-response curves analyzed with a curve fitting program using a 4-parameter logistic dose response equation.
# 3) Anti-cAMP antibody-cryptate working solution preparation • c) The lyophilisate was reconstituted with appropriate amount of distilled water according to manufacturer's instruction to make working stock which can be aliquoted and frozen (−20° C.). • d) The working stock solution was diluted 1:20 in the conjugate and lysis buffer before use. Procedures Procedures for Cell Suspension Preparation • 1. Frozen cells were thawed very briefly in a 37° C. water bath under sterile conditions until just before ice completely melt (for about 1 minute) with a continuous agitation. Caution was taken because a longer incubation could result in cell death. • 2. DMSO was removed from the media by carefully transferring thawed cells to a sterile 15/50 mL tube, filling a tube with 10-50 mL of complete media pre-warmed to 37° C., and allowing the cells to sit 5 min before centrifuging at 900 rpm for 5 minutes for cell collection. • 3. The cells were resuspended with assay buffer. • 4. For stable GLP1-R assay, the optimized cell density is 1000 cells/well. Caution was taken because cell density optimization was crucial and needed to be optimized in different laboratories. The level of cAMP produced by the cells must fall within the linear range of the standard curve.
# Sequence of GLP1R (P43220 24-463): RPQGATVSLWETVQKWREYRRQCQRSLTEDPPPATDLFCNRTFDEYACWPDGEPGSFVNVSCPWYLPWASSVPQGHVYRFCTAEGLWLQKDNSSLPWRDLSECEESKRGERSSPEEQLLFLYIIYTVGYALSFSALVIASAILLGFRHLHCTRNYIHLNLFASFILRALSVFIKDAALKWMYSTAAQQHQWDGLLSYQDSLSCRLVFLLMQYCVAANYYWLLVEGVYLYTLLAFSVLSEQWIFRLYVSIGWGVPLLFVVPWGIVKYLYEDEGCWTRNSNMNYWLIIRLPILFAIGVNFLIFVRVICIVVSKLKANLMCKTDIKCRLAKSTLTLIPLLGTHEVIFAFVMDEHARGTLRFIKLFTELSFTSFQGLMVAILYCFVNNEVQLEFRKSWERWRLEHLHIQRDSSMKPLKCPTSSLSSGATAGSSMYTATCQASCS
row,EC50 [nM],Compound
1,≤ 15,O=C(O)c1ccc2nc(CN3CC=C(c4cccc(OCc5cccnc5Cl)n4)CC3)n(C[C@@H]3CCO3)c2c1 [Compound 163]
2,≤ 150,"Cn1cnc2ccc(COc3cccc(C4=CCN(Cc5nc6ccc(C(=O)O)cc6n5C[C@@H]5CCO5)CC4)n3)cc21 [Compound 241, (S)-2-((6-((1-methyl-1H-benzo[d]imidazol-6-yl)methoxy)-3′,6′-dihydro-[2,4′-bipyridin]-(2′H)-yl)methyl)-1-(oxetan-2-ylmethyl)-1H-benzo[d]imidazole-6-carboxylic add]"
3,≤ 1000,"O=C(O)c1ccc2nc(CN3CC=C(c4cncc(OCc5ccc(Cl)cc5F)c4)CC3)n(C[C@@H]3CCO3)c2c1 [Compound 32, (S)-2-((5-((4-chloro-2-fluorobenzyl)oxy)-3′,6′-dihydro-[3H′-bipyridin]-1′(2′H)-yl)methyl)-1-(oxetan-2-ylmethyl)-1 h-benzo[d]imidazole-6-carboxylic acid]"
4,≤ 150,"N#Cc1ccc(COc2cccc(N3CCC(Cc4nc5ccc(C(=O)O)nc5n4C[C@@H]4CCO4)CC3)n2)nc1 [Compound 231, (S)-2-((l-(6-((5-cyanopyridin-2-yl)methoxy)pyridin-2-yl)piperidin-4-yl)methyl)-3-(oxetan-2-ylmethyl)-3H-imidazo[4,5-b]pyridine-5-carboxylic acid]"
5,≤ 150,"N#Cc1ccc(COc2cccc(C3CCN(Cc4nc5ccc(C(=O)O)cc5n4C[C@@H]4CCO4)CC3)c2)c(F)c1 [Compound 191, (S)-2-((4-(3-((4-cyano-2-fluorobenzyl)oxy)phenyl)piperidin-1-yl)methyl)-1-(oxetan-2-ylmethyl)-1H-benzo[d]imidazole-6-carboxylic acid]"
6,≤ 150,"O=C(O)c1ccc2nc(CN3CC=C(c4ccnc(NCc5ccc(Cl)cc5F)n4)CC3)n(C[C@@H]3CCO3)c2c1 [Compound 125, (S)-2-((4-(2-((4-chloro-2-fluorobenzyl)amino)pyrimidin-4-yl)-3,6-dihydropyridin-1(2H)-yl)methyl)-1-(oxetan-2-ylmethyl)-1H-benzo[d]imidazole-6-carboxylic add]"
7,≤ 150,"O=C(O)c1ccc2nc(CN3CCC(c4ccc5ccn(Cc6ccc(Cl)cc6F)c5n4)CC3)n(C[C@@H]3CCO3)c2c1 [Compound 24, (S)-2-((4-(1-(4-chloro-2-fluorobenzyl)-1H-pyrrolo[2,3-b]pyridin-6-yl)piperidin-1-yl)methyl)-1-(oxetan-2-ylmethyl)-1H-benzo[d]imidazole-6-carboxylic add]"
8,≤ 150,"O=C(O)c1ccc2nc(CN3CCC(F)(c4cccc(OCc5ccc(Cl)cc5F)n4)CC3)n(C[C@@H]3CCO3)c2c1 [Compound 67, (S)-2-((4-(6-(4-chloro-2-fluorobenzyloxy)pyridin-2-yl)-4-fluoropiperidin-1-yl)methyl)-1-(oxetan-2-ylmethyl)-1H-benzo[d]imidazole-6-carboxylic acid]"

# Further lines, the compound ahead of its results:
row,Compound,EC50 [nM]
1,"N#CC1(c2cccc(OCc3ccc(Cl)cc3F)n2)CCN(Cc2nc3ccc(C(=O)O)cc3n2C[C@@H]2CCO2)CC1 [Compound 66, (S)-2-((4-(6-((4-chloro-2-fluorobenzyl)oxy)pyridin-2-yl)-4-cyanopiperidin-1-yl)methyl)-1-(oxetan-2-ylmethyl)-1H-benzo[d]imidazole-6-carboxylic acid]",> 1000
2,CC(Oc1cccc(C2=CCN(Cc3nc4ccc(C(=O)O)cc4n3C[C@@H]3CCO3)CC2)n1)c1ccc(Cl)cc1F (stereo partly drawn) [Compound 70],≤ 15
3,"O=C(O)c1ccc2nc(CN3CC=C(c4cccc(OC5CCCc6cc(Cl)ccc65)n4)CC3)n(C[C@@H]3CCO3)c2c1 (stereo partly drawn) [Compound 60, 2-((6-((6-chloro-1,2,3,4-tetrahydronaphthalen-1-yl)oxy)-3′,6′-dihydro-[2,4′-bipyridin]-1′(2′H)-yl)methyl)-1-(((S)-oxetan-2-yl)methyl)-1H-benzo[d]imidazole-6-carboxylic acid]",≤ 1000
4,(S)-2-((4-(2-((4-(cyclopropylethynyl)-2-fluorobenzyl)oxy)pyrimidin-4-yl)piperazin-1-yl)methyl)-1-(oxetan-2-ylmethyl)-1H-benzo[d]imidazole-6-carboxylic add [Compound 194],≤ 150
5,"O=C(O)c1ccc2nc(CN3CCN(c4cccc(OCc5ccc(C#CC6CC6)cc5F)c4)CC3)n(C[C@@H]3CCO3)c2c1 [Compound 190, (S)-2-((4-(3-((4-(cyclopropylethynyl)-2-fluorobenzyl)oxy)phenyl)piperazin-1-yl)methyl)-1-(oxetan-2-ylmethyl)-1H-benzo[d]imidazole-6-carboxylic acid]",≤ 150
6,"O=C(O)c1ccc2nc(CN3CCN(c4nccc(OCc5ccc(Cl)cc5F)n4)CC3)n(C[C@@H]3CCO3)c2c1 [Compound 181, (S)-2-((4-(4-((4-chloro-2-fluorobenzyl)oxy)pyrimidin-2-yl)piperazin-1-yl)methyl)-1-(oxetan-2-ylmethyl)-1H-benzo[d]imidazole-6-carboxylic acid]",≤ 15
7,"O=C(O)c1ccc2nc(CN3CC=C(c4ncc(F)c(NCc5ccc(Cl)cc5F)n4)CC3)n(C[C@@H]3CCO3)c2c1 [Compound 122, (S)-2-((4-(4-(4-chloro-2-fluorobenzylamino)-5-fluoropyrimidin-2-yl)-5,6-dihydropyridin-1(2H)-yl)methyl)-1-(oxetan-2-ylmethyl)-1H-benzo[d]imidazole-6-carboxylic acid]",≤ 150
8,"O=C(O)c1ccc2nc(CN3CCN(c4cccc(OCc5ccc(Cl)cc5F)n4)CC3=O)n(C[C@@H]3CCO3)c2c1 [Compound 106, (S)-2-((4-(6-((4-chloro-2-fluorobenzyl)oxy)pyridin-2-yl)-2-oxopiperazin-1-yl)methyl)-1-(oxetan-2-ylmethyl)-1H-benzo[d]imidazole-6-carboxylic add]",≤ 15
9,"O=C(O)c1ccc2nc(CN3CC=C(c4cccc(OCc5ccc(F)cc5)n4)CC3)n(C[C@@H]3CCO3)c2c1 [Compound 157, (S)-2-((6-((4-fluorobenzyl)oxy)-3′,6′-dihydro-[2H′-bipyridin]-1′(2′H)-yl)methyl)-1-(oxetan-2-ylmethyl)-1H-benzo[d]imidazole-6-carboxylic acid]",≤ 15
10,"N#Cc1ccc(COc2cccc(N3CC=C(Cc4nc5ccc(C(=O)O)cc5n4C[C@@H]4CCO4)CC3)n2)c(F)c1 [Compound 240, (S)-2-((6′-((4-cyano-2-fluorobenzyl)oxy)-3,6-dihydro-2H-[1,2′-bipyridin]-4-yl)methyl)-1-(oxetan-2-ylmethyl)-1H-benzo[d]imidazole-6-carboxylic add]",≤ 150
11,"O=C(O)c1ccc2nc(CN3CC=C(c4cccc(OCc5ccccc5Cl)n4)CC3)n(C[C@@H]3CCO3)c2c1 [Compound 136, (S)-2-((6-((2-chlorobenzyl)oxy)-3′,6′-dihydro-[2,4′-bipyridin]-1′(2′H)-yl)methyl)-1-(oxetan-2-ylmethyl)-1H-benzo[d]imidazole-6-carboxylic acid]",≤ 15
12,"O=C(O)c1ccc2nc(CN3CC=C(c4cc5nc[nH]c5c(OCc5ccc(Cl)cc5F)n4)CC3)n(C[C@@H]3CCO3)c2c1 [Compound 58, (S)-2-((4-(4-((4-chloro-2-fluorobenzyl)oxy)-3H-imidazo[4,5-c]pyridin-6-yl)-3,6-dihydropyridin-1(2H)-yl)methyl)-1-(oxetan-2-ylmethyl)-1H-benzo[d]imidazole-6-carboxylic acid]",> 1000
13,"O=C(O)c1ccc2nc(CN3CC=C(c4nc(OCc5ccc(F)cc5F)c(F)cc4F)CC3)n(C[C@@H]3CCO3)c2c1 [Compound 216, (S)-2-((4-(6-(2,4-difluorobenzyloxy)-3,5-difluoropyridin-2-yl)-5,6-dihydropyridin-1(2H)-yl)methyl)-1-(oxetan-2-ylmethyl)-1H-benzo[d]imidazole-6-carboxylic acid]",≤ 15
